From ChEMBL document CHEMBL5370634, “Synthesis and Antifungal Evaluation of New Azole Derivatives against Candida albicans” (ACS Med Chem Lett, 2023) come the findings set out here.

Molecules are shown by their SMILES. In brackets after ≈: the same amount, converted by molar mass. Activity calls are given as the source filed them. No cut-off for these calls is given here.

Series [1] relates to Candida albicans. Description: Induction of morphological changes in Candida albicans SC5314 assessed as leaking of intracellular substances incubated for 16 hrs by TEM analysis. Conditions: dose 0.15-0.6 µg/ml. In kind it is functional, organism-based.
Series [2] concerns Candida albicans. Description: Induction of morphological changes in Candida albicans SC5314 assessed as appearance of broken slag-like material incubated for 16 hrs by TEM analysis. Type of series: functional, organism-based. Conditions: dose 0.15-0.6 µg/ml.
The subject of series [3] is Candida albicans. Description: Induction of morphological changes in Candida albicans SC5314 assessed as appearance of incomplete cell wall structure incubated for 16 hrs by TEM analysis. Type of series: functional, organism-based. The settings on record: dose 0.15-0.6 µg/ml.
In series [4] the target is T1, Lanosterol 14-alpha demethylase (Candida albicans (strain SC5314 / ATCC MYA-2876) (Yeast), UniProt P10613). Description: Inhibition of CYP51 in Candida albicans SC5314 assessed as reduction in ergosterol content at 0.15 to 0.6 ug/mL incubated for 16 hrs by spectrophotometry analysis. The settings on record: at 0.15 to 0.6 µg/mL, dose 0.15-0.6 µg/ml.
T1 sequence (P10613 whole entry): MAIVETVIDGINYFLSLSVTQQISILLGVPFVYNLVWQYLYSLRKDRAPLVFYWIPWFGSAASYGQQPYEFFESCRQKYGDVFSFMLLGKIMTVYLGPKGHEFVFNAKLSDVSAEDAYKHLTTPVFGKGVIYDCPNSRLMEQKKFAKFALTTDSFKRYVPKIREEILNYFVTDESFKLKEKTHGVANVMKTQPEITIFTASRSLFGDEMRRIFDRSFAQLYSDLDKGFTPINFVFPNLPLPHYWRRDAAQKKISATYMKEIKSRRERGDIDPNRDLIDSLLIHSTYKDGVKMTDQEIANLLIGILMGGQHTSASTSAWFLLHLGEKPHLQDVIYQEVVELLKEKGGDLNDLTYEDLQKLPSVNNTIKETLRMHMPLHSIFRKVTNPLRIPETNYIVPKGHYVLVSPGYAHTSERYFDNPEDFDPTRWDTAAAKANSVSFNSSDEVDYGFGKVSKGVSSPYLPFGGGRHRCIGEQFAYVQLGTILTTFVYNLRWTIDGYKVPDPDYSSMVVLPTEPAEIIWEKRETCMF
The subject of series [5] is Candida albicans. Description: Antifungal activity against Candida albicans SC5314FR incubated for 24 hrs by microdilution method. Type of series: functional.
The test system of series [6] is Candida albicans. Description: Induction of morphological changes in Candida albicans SC5314 assessed as appearance of unclear cell membrane outline incubated for 16 hrs by TEM analysis. Type of series: functional, organism-based. Conditions: dose 0.15-0.6 µg/ml.
Series [7] has as its system Candida albicans. Description: Induction of morphological changes in Candida albicans SC5314 assessed as appearance of obvious defects incubated for 16 hrs by TEM analysis. Type of series: functional, organism-based. Conditions: dose 0.15-0.6 µg/ml.
In series [8] the test system is Candida albicans. The series is described as follows: Antifungal activity against Candida albicans SC5314 assessed as fractional inhibitory concentration index incubated for 24 hrs in presence of fluconazole by microdilution method. Type of series: functional.
Series [9] concerns Candida albicans. The series is described as follows: Antibiofilm activity against Candida albicans SC5314 assessed as inhibition of biofilm formation at 0.15 to 0.6 ug/mL incubated for 24 hrs by crystal violet staining based inverted microscopy analysis. In kind it is functional, organism-based. Conditions: dose 0.15-0.6 µg/ml.
The subject of series [10] is Candida albicans. Description: Induction of morphological changes in Candida albicans SC5314 assessed as appearance of loose texture incubated for 16 hrs by TEM analysis. In kind it is functional, organism-based. Conditions: dose 0.15-0.6 µg/ml.
Series [11] deals with Candida albicans. Description: Antibiofilm activity against Candida albicans SC5314 assessed as inhibition of biofilm formation at 0.3 ug/mL incubated for 24 hrs in presence of fluconazole by crystal violet staining based inverted microscopy analysis. Type of series: functional, organism-based. The settings on record: dose 0.3 µg/ml.
Series [12] has as its system Candida albicans. Description: Induction of morphological changes in Candida albicans SC5314 assessed as chaotic dissolution of vacuoles incubated for 16 hrs by TEM analysis. In kind it is functional, organism-based. Conditions: dose 0.15-0.6 µg/ml.
The test system of series [13] is Candida albicans. Description: Antifungal activity against Candida albicans SC5314FR incubated for 24 hrs in presence of fluconazole by microdilution method. In kind it is functional, SC5314.
For series [14], the system named is Candida albicans. Description: Antifungal activity against Candida albicans SC5314FR assessed as fractional inhibitory concentration index incubated for 24 hrs in presence of fluconazole by microdilution method. In kind it is functional.
The test system of series [15] is Candida albicans. The series is described as follows: Induction of cell membrane permeability in Candida albicans SC5314 at 0.15 to 0.6 ug/mL incubated for 16 hrs by […] iodide staining based fluorescence microscopy. Type of series: functional, organism-based. The settings on record: dose 0.15-0.6 µg/ml.
The subject of series [16] is Candida albicans. Description: Antifungal activity against Candida albicans SC5314 incubated for 24 hrs in presence of fluconazole by microdilution method. Type of series: functional.
In series [17] the test system is Candida albicans. Description: Antifungal activity against Candida albicans SC5314 incubated for 24 hrs by microdilution method. In kind it is functional.
In series [18] the test system is Candida albicans. The series is described as follows: Induction of morphological changes in Candida albicans SC5314 assessed as chaotic dissolution of cytoplasm incubated for 16 hrs by TEM analysis. The settings on record: dose 0.15-0.6 µg/ml. Type of series: functional, organism-based.
Series [19] deals with Candida albicans. The series is described as follows: Induction of morphological changes in Candida albicans SC5314 assessed as appearance of blurred boundary between cell wall and cell membrane incubated for 16 hrs by TEM analysis. Type of series: functional, organism-based. Conditions: dose 0.15-0.6 µg/ml.
Series [20] concerns the target T1, Lanosterol 14-alpha demethylase. The series is described as follows: Inhibition of CYP51 in Candida albicans SC5314 assessed as reduction in ergosterol content at 0.3 ug/mL incubated for 16 hrs by spectrophotometry analysis. The settings on record: at 0.3 µg/mL.
In series [21] the test system is Candida albicans. Description: Antibiofilm activity against Candida albicans SC5314 assessed as inhibition of biofilm formation at 0.3 ug/mL incubated for 24 hrs by crystal violet staining based inverted microscopy analysis. Type of series: functional, organism-based. The settings on record: dose 0.3 µg/ml.
In series [22] the test system is Candida albicans. The series is described as follows: Induction of cell membrane permeability in Candida albicans SC5314 at 0.3 ug/mL incubated for 16 hrs by […] iodide staining based fluorescence microscopy. Type of series: functional, organism-based. Conditions: dose 0.3 µg/ml.
Series [23] has as its system Candida albicans. Description: Induction of morphological changes in Candida albicans SC5314 assessed as appearance of slightly blurred cytoplasm at 0.3 ug/ml incubated for 16 hrs by TEM analysis. In kind it is functional, organism-based. The settings on record: dose 0.3 µg/ml.

With `CC(=O)N1CCN(c2ccc(OCCN(CC(O)(Cn3cncn3)c3ccc(F)cc3F)S(=O)(=O)c3ccc(Cl)cc3Cl)cc2)CC1` (stereo unspecified), the Activity result in series [1], in series [2], in [3], in [6], in [7] and in series [10] was “Dose-Dependent Effect” in each case. Also, the Activity entry in series [12], in series [18] and in series [19] was “Dose-Dependent Effect” each time. The “inhibition (INH)” value in series [4] is “Active”. Also, the MIC50 is above 200 µg/mL in [5], above 200 µg/mL in series [13], 0.09 µg/mL in series [16] and 0.02 µg/mL (≈ 0.0282 µM) in series [17]. The entries for the “fractional inhibitory concentration index (FICI)” value in series [8] and in series [14] were 4.55 and 2, respectively. The inhibition result in series [9] and in series [11] was “Active” throughout. The result in series [15] was Active.
For `CC(=O)N1CCN(c2ccc(OCCN(CC(O)(Cn3cncn3)c3ccc(F)cc3F)S(=O)(=O)CCCCl)cc2)CC1` (stereo unspecified), the MIC50 in series [5] is above 200 µg/mL; in [13] it was above 200 µg/mL; in series [16], 0.16 µg/mL; in series [17], 0.66 µg/mL (≈ 1.03 µM). The “fractional inhibitory concentration index (FICI)” value is 0.33 in series [8] and 2 in series [14].
With `CC(=O)N1CCN(c2ccc(OCCN(Cc3ccc(Br)cc3)CC(O)(Cn3cncn3)c3ccc(F)cc3F)cc2)CC1` (stereo unspecified), the MIC50 in series [5] is above 200 µg/mL; in series [13], above 200 µg/mL; in series [16], 2.17 µg/mL; in series [17], 5.71 µg/mL (≈ 8.53 µM). The “fractional inhibitory concentration index (FICI)” value in series [8] worked out at 1.58; in series [14], 2.
Take `CC(=O)N1CCN(c2ccc(OCCN(Cc3ccc([N+](=O)[O-])cc3)CC(O)(Cn3cncn3)c3ccc(F)cc3F)cc2)CC1` (stereo unspecified): the MIC50 in series [5] is above 200 µg/mL; in series [13], above 200 µg/mL; in [16] it was 0.002 µg/mL; in [17], 0.08 µg/mL (≈ 0.126 µM). The “fractional inhibitory concentration index (FICI)” value in [8] worked out at 0.03; in series [14], 2.
For the compound `CC(=O)N1CCN(c2ccc(OCCN(CC(O)(Cn3cncn3)c3ccc(F)cc3F)S(=O)(=O)c3ccc(OC(F)(F)F)cc3)cc2)CC1` (stereo unspecified), the MIC50 in series [5] is above 200 µg/mL; in series [13] it was above 200 µg/mL; in [16], 0.26 µg/mL; in series [17], 0.84 µg/mL (≈ 1.16 µM). In addition, the “fractional inhibitory concentration index (FICI)” value in series [8] amounted to 0.45; in series [14], 2.
As for `CC(=O)N1CCN(c2ccc(OCCN(CC(O)(Cn3cncn3)c3ccc(F)cc3F)S(=O)(=O)c3ccc(Br)cc3)cc2)CC1` (stereo unspecified), the MIC50 in [5] was above 200 µg/mL; in [13] it was above 200 µg/mL; in [16] it was 0.04 µg/mL; in series [17] it was 0.2 µg/mL (≈ 0.278 µM). The “fractional inhibitory concentration index (FICI)” value in [8] is recorded as 0.22; in series [14], 2.
With `CC(=O)N1CCN(c2ccc(OCCN(CC(O)(Cn3cncn3)c3ccc(F)cc3F)S(=O)(=O)c3ccc(Cl)cc3)cc2)CC1` (stereo unspecified), the MIC50 was 33.2 µg/mL (≈ 49.2 µM) in series [5], above 200 µg/mL in series [13], 3.88 µg/mL in series [16] and 8.49 µg/mL (≈ 12.6 µM) in series [17]. For the same compound, the “fractional inhibitory concentration index (FICI)” value is 2.61 in series [8] and 13.42 in [14].
On to `CC(=O)N1CCN(c2ccc(OCCN(CC(O)(Cn3cncn3)c3ccc(F)cc3F)C(=O)c3ccc(Cl)cc3)cc2)CC1` (stereo unspecified), for which the MIC50 in series [5] is above 200 µg/mL; in series [13], 147 µg/mL; in series [16], 0.91 µg/mL; in series [17], 6.79 µg/mL (≈ 10.6 µM). The “fractional inhibitory concentration index (FICI)” value in series [8] is given as 0.64; in [14], 0.73.
As to `C=CCN(CCOc1ccc(N2CCN(C(C)=O)CC2)cc1)CC(O)(Cn1cncn1)c1ccc(F)cc1F` (stereo unspecified), the MIC50 worked out at 115 µg/mL (≈ 213 µM) in [5], 95.7 µg/mL in series [13], 2.17 µg/mL in [16] and 7.13 µg/mL (≈ 13.2 µM) in series [17]. Moreover, the “fractional inhibitory concentration index (FICI)” value came to 1.51 in series [8] and 1.07 in [14].
Consider `OC(Cn1cncn1)(Cn1cncn1)c1ccc(F)cc1F` [FLUCONAZOLE], for which, in series [20], the “inhibition (INH)” value is given as “Not Active”. Further, the MIC50 in [5] is above 200 µg/mL; in series [17], 1.8 µg/mL (≈ 5.88 µM). For the same compound, in [21], the inhibition entry was “inactive”. In series [22], the result was inactive. Besides, the outcome in [23] was Active.
As for `COc1ccc(C(=O)CN(CCOc2ccc(N3CCN(C(C)=O)CC3)cc2)CC(O)(Cn2cncn2)c2ccc(F)cc2F)cc1OC` (stereo unspecified), the MIC50 in series [5] was above 200 µg/mL; in series [13], above 200 µg/mL; in [16], 1.22 µg/mL; in series [17], 35 µg/mL (≈ 51.5 µM). Moreover, the “fractional inhibitory concentration index (FICI)” value in [8] is 0.71; in [14], 2.
`CC(=O)N1CCN(c2ccc(OCCN(Cc3ccc(Cl)cc3)CC(O)(Cn3cncn3)c3ccc(F)cc3F)cc2)CC1` (stereo unspecified): the MIC50 was above 200 µg/mL in [5], above 200 µg/mL in series [13], 5.85 µg/mL in [16] and 9.32 µg/mL (≈ 14.9 µM) in [17]. The “fractional inhibitory concentration index (FICI)” value was determined as 3.88 in [8] and 2 in series [14].
With `CC(=O)N1CCN(c2ccc(OCCN(CC(O)(Cn3cncn3)c3ccc(F)cc3F)C(=O)c3cc(F)c(F)c(F)c3F)cc2)CC1` (stereo unspecified), the MIC50 in series [5] is above 200 µg/mL; in series [13], above 200 µg/mL; in series [16], 0.14 µg/mL; in [17], 0.31 µg/mL (≈ 0.458 µM). Also, the “fractional inhibitory concentration index (FICI)” value in [8] stood at 0.53; in [14] it was 2.
